This passage reports Ki and inhibition results from ChEMBL document CHEMBL1155949, “Blockade of glucocorticoid excess at the tissue level: inhibitors of 11beta-hydroxysteroid dehydrogenase type 1 as a therapy for type 2 diabetes” (J Med Chem, 2008).

Test [1] in a line: Inhibition of cynomolgus monkey 11beta-HSD1 mediated conversion of prednisone to prednisolone. Set-up: species or system Macaca fascicularis.
Test [2] relates to Corticosteroid 11-beta-dehydrogenase isozyme 2 (Homo sapiens). The experiment in a line: Inhibition of 11beta-HSD2 in human SW620 cells at 10 uM. The note with it: SW-620.

What is called Ki is the equilibrium dissociation constant of an inhibitor or competing ligand from its target. As to `N#Cc1ccc(-c2ccc(S(=O)(=O)Nc3cccc(N)n3)cc2)cc1`, in test [1], the Ki came to 2.3 nM.
Usually inhibition stands for the percentage by which the read-out fell short of the control. For the molecule `O=C(Nc1cccc(C(=O)N2CCC[C@H]3CCCC[C@@H]32)c1)c1ccccc1`, the inhibition in test [2] amounted to 12%.
